From PMC12040169 (PLOS Biology, 2025)

Test: in vitro
Settings: human, hela cells, % viability

SMILES	viability at 28.5 h, 10 µM [%]
COc1ccc(S(=O)(=O)Nc2nccnc2-c2cccs2)cc1OC [CBK050774]	104
COc1cc(/C=C(/C#N)c2ccc(C(=O)O)cc2)cc(Br)c1OCC(=O)O [CBK268956]	92.3
O=C(Nc1ccccc1C(=O)O)c1ccc(Cl)c(S(=O)(=O)N2CCCCC2)c1 [CBK261763]	113
O=[N+]([O-])c1ccccc1S(=O)(=O)N1CCN(S(=O)(=O)c2ccc(Cl)cc2)CC1 [CBK264311]	98.6
Cc1cc(F)ccc1S(=O)(=O)NCC1CC(=O)Nc2ccccc21 (centres unmarked) [CBK305210]	86.5
CN(CC(=O)N1CCN(Cc2ccc3c(c2)OCO3)CC1)S(=O)(=O)c1ccc2ccccc2c1 [CBK267016]	108
CCc1nc2ccc(C(=O)N(C)CCN(C)C)cn2c1N(CC)C(=O)NCCc1ccccc1 [CBK147036]	96.4
Cc1ccc(S(=O)(=O)Nc2nc3ccc(S(=O)(=O)N4CCOCC4)cc3s2)cc1 [CBK266988]	88.8
O=C(CC1SC(NC2CCCCCC2)=NC1=O)NCc1c(F)cccc1Cl (centres unmarked) [CBK067656]	89.7
CC(C)C(=O)Nc1cc2cccnc2nc1-c1ccc2c(c1)OCCCO2 [CBK073658]	96.3
COc1cc(-c2cncc(NCc3ccncc3)n2)cc(OC)c1OC [CBK065263]	98.9
FC(F)(F)c1cnc(Sc2c[nH]nn2)c(Cl)c1 [CBK007252]	93.3
CC1CCN(S(=O)(=O)c2ccc(NC(=O)CCN3C(=O)c4ccccc4C3=O)cc2)CC1 [CBK265572]	98.8
COc1ccc(C(=O)N[C@H]2C[C@H]3C(=O)Nc4ccccc4C(=O)N3C2)cc1 [CBK289355]	84.7
CC(C)C(=O)NC(c1ccc(C(C)C)cc1)c1cc([N+](=O)[O-])c2cccnc2c1O (centres unmarked) [CBK265303]	103
CN(CC(=O)Nc1cccc(Cl)c1)S(=O)(=O)c1ccc2ccccc2c1 [CBK266746]	105
CC(C)C(NC(=O)CN1CSCC1=O)c1ccc(C(C)(C)C)cc1 (centres unmarked) [CBK297899]	88.6
OCC(O)CN1CCCC1 (centres unmarked) [CBK015457]	114
COc1ccccc1-c1cccc(NCC(c2cccnc2)N(C)C)n1 (centres unmarked) [CBK037770]	103
CCn1cc(S(=O)(=O)Nc2ccc3c(ccn3C)c2)c(C)n1 [CBK282818]	84.2
Cc1ccc(N(CC(=O)N/N=C/C(C)C)S(=O)(=O)c2ccccc2)c(C)c1 [CBK262397]	92.5
Cc1nc(C2CC(=O)N(Cc3ccccn3)C2)n(-c2ccccc2F)n1 (centres unmarked) [CBK306895]	89.6

SMILES	viability at 28.5 h, 10 µM [%]
Cc1ccc(S(=O)(=O)NCCCO)cc1C(=O)O [CBK266610]	89.7
CCc1cc(Br)ccc1S(=O)(=O)NCCCC(=O)OC [CBK044788]	88.2
O=C(CCSc1ccccc1)Nc1ccccc1C(=O)N1CCCCC1 [CBK269545]	87.3
CCn1c(C)nc2cc(NC(=O)c3ccc(CN(C)C)cc3)ccc21 [CBK281880]	106
O=C(NCCc1cccs1)NC1CCCc2c1cnn2CCO (centres unmarked) [CBK306324]	92.6
CCOc1ccccc1CNc1ccc(C2c3ccsc3CCN2C(=O)COC)cc1 (centres unmarked) [CBK286461]	88.5
Cn1c(CN2CCCC2)nc2cc(NC(=O)c3cccc([N+](=O)[O-])c3)ccc21 [CBK268316]	98.6
CCc1c(O)c2ccccc2n(Cc2ccccc2)c1=O [CBK219367]	90
Cn1c(-c2ccc(CN3CCCC3)cc2)cc2oc(-c3ccccc3SCCO)nc2c1=O [CBK200427T]	94.7
Cn1c(CSCc2ccccc2F)nnc1SCC(=O)c1ccc(Br)cc1 [CBK269143]	92.3
CC(=O)Nc1c(-c2ccc(C)cc2)c(=O)c2ccccc2n1C [CBK287775]	88
CC(=O)Nc1ccc(NC(=O)Cc2n[nH]c(=S)n2Cc2ccccc2)cc1 [CBK296754]	91.1
O=C(O)c1cccc(CSc2nc3ccccc3o2)c1 [CBK270193]	91.7
N#Cc1ccc(CSc2nnc(COc3ccccc3)n2Cc2ccco2)cc1 [CBK267539]	87.9
O=C(c1ccc(C#CC2(O)CCCCC2)cc1)N1CCC(C(O)(c2ccccc2)c2ccccc2)CC1 [CBK033758]	84.7
O=C(c1cnoc1-c1ccc([N+](=O)[O-])cc1)N1CCCC1 [CBK153846]	107
COCOc1ccc(-c2nc(-c3ccco3)cnc2N)cc1 [CBK064108]	82.9
O=C1CC[C@@H](NCc2ccco2)[C@H](c2cc(F)cc(F)c2)N1 [CBK283127]	102
Cc1cc(N2CCOC3(CCN(C(=O)c4ccc5ccccc5c4)CC3)C2)nc(N)n1 [CBK161125A]	93.2
CCCc1n[nH]c(=S)n1CC(=O)Nc1cccc(-n2ncc(C(=O)OCC)c2C)c1 [CBK297746]	90.2
CSCCN1CCC(Oc2cncc(OCC3COc4ccccc4O3)n2)C1 (centres unmarked) [CBK084381]	105
Cc1ccc(S(=O)(=O)Nc2ccc(Nc3cc(-c4cc5ccccc5o4)ncn3)cc2)cc1 [CBK090976]	96.8
